According to US5869456A, “Use of glutathione diesters” (priority 1995, dated 1999):
Like-named read-outs stand apart in the source and are kept apart here.

Experiments:
[1] = system: Hamsters (liver, kidney, blood plasma); assay: Thiol levels in hamsters treated with GSH esters; type: in vivo, Syrian hamster; conditions: 1 hour later
Method: Plasma Samples: 190 μl 50 mM DTPA, total 70 μ1 sample plus 3.33% SSA, 17.5 μl Tris, 10 μl of mBBr; after 20 min in the dark, 7.5 μl glacial acetic acid. Reduced Plasma Samples: 170μ 50 mM DTPA, 20 μl 16 mM DTT in 50 mM DTPA, remainder as above; the samples were agitated at room temperature for 20 min. After reduction, mBBr was added and the derivatization proceeds as above.
Other Animal Tissues. 385 μl 50 mM DTPA, 140 μl sample. 20 μl mBBr, 40 μl Tris; 20 minutes in the dark, 15 μl glacial acetic acid. Standards for all sample types were prepared using identical derivatization procedures.
Recovery of Tissues from Syrian Hamsters. Animals were anesthetized by i.p. administration of xylazine and ketamine, decapitated, and exsanguinated. Blood was mixed with 50 μl EDTA (0.5M, pH 7). Plasma was recovered by centrifugation; one-half vol. 10% SSA/0.5 mM DTPA was added. Liver: one lobe was removed, rinsed with H2 O, blotted, weighed, and homogenized in 5% SSA (0.5 Mm DTPA) (5 vol/g tissue). Kidney: one kidney was removed and decapsulated and then processed as with liver.
BSO (6 mmol/kg) was given I.P. fasted animals 2 hours prior to giving GSH, GSH-ME, or GSH-DE (5 mmol/kg); values were determined 1 hour later. […] Each value represents determinations ±S.D. on 3-4 animals.

[2] = system: Purified Human T-Lymphoctyes; assay: Thiol levels in purified human T-lymphocytes after treatment with GSH esters; type: cell-based; conditions: purified T-cells, 0.3 ml 80 mM thiol to 0.9 ml cells, 37° C.
Method: HPLC Analysis of Cellular Thiols. […] Flow rates were 1 ml/min.
Purified T-cells were suspended in PBS. […] After incubation at 37° C. for the indicated times, cells were recovered and processed as described for PBM in Table 4.
Where values for cysteine are not reported, levels are <0.3 nmol/10^7cells (for 7 min. samples) or <0.5 nmol/10^7 cells (for 90 mni. samples).

Human Erythrocytes [3] = conditions: for Thiol Levels, thiol found GSH / Thiol Levels, Total / Thiol Levels, thiol found GSH-ME: erythrocyte suspension, 80 mM thiol added (one-third vol), 37° C.
Method: Analysis of Erythrocyte Thiol by DTNB. Cell supernatant (40 μl) was added to 1 ml of 6 mM DTNB (in 143 mM phosphate buffer, pH 7.5, containing 6.3 mM EDTA). The change in absorbance at 412 nm after 1 min was converted to a value for total thiol using a GSH standard curve. The GSH standard were prepared in a 1:2:2 mixture of PBS: 0.435M acetic acid: 10% SSA (containing 2 mM EDTA) ("RBC Mix").
(§1) Derivatization of Cell Thiols for HPLC Analysis. Derivatization mixtures are as follows: Erythrocyte Lysates: 155 μl 50 mM DTPA (pH 7), 110 μl 3.33% SSA, total 180 μl cell supernatant plus "RBC Mix", 10 μl 0.1M mBBr (in CH3 CN), 100 μl of 2M Tris·HCl (pH 9 at room temperature). The samples were placed in the dark for 20-30 minutes at room temperature; the reaction was quenched with 90 μl of glacial acetic acid. Reduced Erythocyte Lysates. 155 μl mM DTT in 50 mM DTPA (pH 7), SSA, sample, and "RBC Mix" as above Tris was added and the samples were agitated at room temperature for 25 min. 20 μl Tris and 10 μl mBBr were added; the derivatization proceeds as above.
(§2) HPLC Analysis of Cellular Thiols. Samples were chromatographed on an Altex Ultrasphere ODS reverse phase column (5μ; 4.6 mm×25 cm), using one of three gradients: (1) Buffer A: 12.8% MeOH, 0.25% acetic acid, 87.75% H2 O, pH 3.9. (2) Buffer B: 90.0% MeOH, 0.25% acetic acid, 9.75% H2 O (no pH Adjustment). (3) Gradient 1: Initial, 100% A, linear gradient to 50% B at 25 min., linear gradient to 100% B at 35 min., wash with 100% B to 39.5 min.; step to 100% A at 40 min.; equilibration with 100% A to 48 min. Gradient 2: Initial, 100% A, linear gradient to 75% B at 25 min., remainder identical to Gradient 1. Gradient 3: Initial, 100% A, linear gradient to 65% A, 35% B at 25 minutes, remainder identical to gradient 1. Flow rates were 1 ml/min.
Whole blood was collected with EDTA or DTPA (0.5M, pH 7) as anticoagulant (0.4 ml/8-12 ml blood). Plasma and buffy coat were removed after centrifugation and the erythrocytes washed 3 times with 1-2 vol PBS/5 mM DTPA or EDTA. Packed erythrocytes were suspended in one-half vol. PBS. To each suspension was one-third vol. GSH, GSH-ME or GSH-DE (80 mM, pH 7). After incubation at 37° C. for the indicated times, aliquots were removed, washed (3-4×) with PBS/EDTA/DTPA, lysed with one volume 0.435M acetic acid, protein-precipitated with one volume 10% SSA/2 mM DTPA, and centrifuged to remove cell debris. Supernatants were derivatized for HPLC analysis as described in Materials and Methods.

[4] = system: Human Peripheral Blood Mononuclear Cells; conditions: for Thiol Levels, thiol found GSH / Thiol Levels, Total / Thiol Levels, thiol found GSH-ME: isolated PBM, 0.3 ml 80 mM thiol to 0.9 ml cells, 37° C.
Method: (§3) T Cell and PBM Lysates: 120 μl 4 mM DTPA, total 360 μl sample/4.31% SSA (containing 0.5 mM DTPA), 100 μl Tris, 5μ mBBr; 20 min. in the dark, 15 μl glacial acetic acid.
as §2
PBM were isolated from whole blood (see Tables 1 and 3) washed with PBS, and re-suspended in PBS. To 0.9 ml cell suspension (5-8×10^6 cells) was added 0.3 ml of 80 mM GSH, GSH-ME or GSH-DE at pH 7. After incubation at 37° C. for the indicated times, the cells were recovered by centrifugation, washed with 14 ml PBS (2×), and lysed by addition of 4.31% of SSA/0.5 mM DTPA and 2-3 freeze-thaw cycles. After centrifugation, supernatants were derivatized for HPLC analysis.

Human Erythrocytes [5] = conditions: whole blood + one-half volume 120 mM thiol, 30 minutes, 37° C.
Method: as §1, §2
Whole blood (see Table 1) was mixed with one-half volume of 120 mM GSH, GSH-ME, or GSH-DE at pH 7. The samples were incubated for 30 minutes at 37° C. and then centrifuged. After removal of plasma and buffy coat, the erythrocytes were washed and processed as described in Table 1.

[6] = system: Human Peripheral Blood Mononuclear Cells; conditions: 6 ml whole blood + 3 ml 60 mM thiol, 30 min, 37° C.; PBM
Method: as §3, §2
6 mls. whole blood (see Table 1) was mixed with 3 ml of 60 mM GSH, GSH-ME or GSH-DE at pH 7. After 30 min incubation at 37° C., PBM were isolated by Ficoll-Hypaque density gradient centrifugation. Cells were washed with 14 ml PBS (2-3) and lysed with 4.31% SSA/0.5 mM DTPA (400 μl). After centrifugation, the supernatants were derivatized for HPLC analysis.

CCCCS(=N)(=O)CCC(N)C(=O)O [BSO, L-buthionine sulfoximine] was tested, and the “Kidney thiol found GSH” value ([1]; fasted hamsters, BSO 6 mmol/kg I.P. 2 hours before thiol 5 mmol/kg, kidney) was 1.00 ± 0.19 µmol/g, the “Liver thiol found GSH” value ([1]; fasted hamsters, BSO 6 mmol/kg I.P. 2 hours before thiol 5 mmol/kg, liver) was 5.10 ± 0.51 µmol/g and the “Thiol Levels, thiol found GSH” value ([2]; 7 min, donor A) was 2.39 ± 0.09 nmol/10^7 cells. The “Thiol Levels, thiol found GSH” value ([2]; 90 min, donor B) was < 0.6 nmol/10^7 cells.

For N[C@@H](CCC(=O)N[C@@H](CS)C(=O)NCC(=O)O)C(=O)O [GSH, L-γ-glutamyl-L-cysteinyl-glycine], the “Thiol Levels, thiol found GSH” value (Human Erythrocytes [3]; 7 min) was 1.91 ± 0.05 mM, the “Thiol Levels, thiol found GSH” value (Human Erythrocytes [3]; 45 min) was 2.04 ± 0.06 mM and the “Thiol Levels, thiol found GSH” value (Human Erythrocytes [3]; 90 min) was 1.83 ± 0.07 mM. The “Thiol Levels, thiol found GSH” value ([4]; 7 min, donor A) was 1.86 nmol/10^6 cells, the “Thiol Levels, thiol found GSH” value ([4]; 7 min, donor B) was 1.51 nmol/10^6 cells and the “Thiol Levels, thiol found GSH” value ([4]; 45 min, donor B) was 1.16 ± 0.06 nmol/10^6 cells. For the same molecule, the “Thiol Levels, thiol found GSH” value ([4]; 90 min, donor A) was 1.60 nmol/10^6 cells, the “Thiol Levels Found, GSH” value (Human Erythrocytes [5]) was 2.12 ± 0.47 mM and the “Thiol Levels Found, Total” value (Human Erythrocytes [5]) was 2.12 ± 0.47 mM.

With CCOC(=O)CNC(=O)[C@H](CS)NC(=O)CC[C@H](N)C(=O)O [GSH-ME, glutathione monoethyl (glycyl) ester] the “Thiol Levels, Total” value (Human Erythrocytes [3]; 7 min) was 2.65 ± 0.31 mM, the “Thiol Levels, thiol found GSH” value (Human Erythrocytes [3]; 7 min) was 1.72 ± 0.27 mM and the “Thiol Levels, thiol found GSH-ME” value (Human Erythrocytes [3]; 7 min) was 0.932 ± 0.04 mM. For the same molecule, the “Thiol Levels, Total” value (Human Erythrocytes [3]; 45 min) was 3.49 ± 0.35 mM, the “Thiol Levels, thiol found GSH” value (Human Erythrocytes [3]; 45 min) was 1.83 ± 0.31 mM and the “Thiol Levels, thiol found GSH-ME” value (Human Erythrocytes [3]; 45 min) was 1.66 ± 0.04 mM. For the same molecule, the “Thiol Levels, Total” value (Human Erythrocytes [3]; 90 min) was 3.57 ± 0.38 mM, the “Thiol Levels, thiol found GSH” value (Human Erythrocytes [3]; 90 min) was 1.90 ± 0.30 mM and the “Thiol Levels, thiol found GSH-ME” value (Human Erythrocytes [3]; 90 min) was 1.67 ± 0.08 mM. The “total RBC thiol levels” value (Human Erythrocytes [3]; summary of Table 1) was “about 3 mM”, the “total thiols in human PBM” value ([4]; in 90 min, text summary of Table 4) was 10.6 mM and the “Thiol Levels, Total” value ([4]; 7 min, donor A) was 3.32 ± 0.19 nmol/10^6 cells. For the same molecule, the “Thiol Levels, thiol found GSH” value ([4]; 7 min, donor A) was 2.05 ± 0.08 nmol/10^6 cells, the “Thiol Levels, thiol found GSH-ME” value ([4]; 7 min, donor A) was 1.27 ± 0.11 nmol/10^6 cells and the “Thiol Levels, Total” value ([4]; 45 min, donor B) was 4.39 ± 0.25 nmol/10^6 cells. The “Thiol Levels, thiol found GSH” value ([4]; 45 min, donor B) was 1.64 ± 0.06 nmol/10^6 cells, the “Thiol Levels, thiol found GSH-ME” value ([4]; 45 min, donor B) was 2.75 ± 0.19 nmol/10^6 cells and the “Thiol Levels, Total” value ([4]; 90 min, donor A) was 10.7 ± 1.3 nmol/10^6 cells. For the same molecule, the “Thiol Levels, thiol found GSH” value ([4]; 90 min, donor A) was 3.45 ± 0.39 nmol/10^6 cells, the “Thiol Levels, thiol found GSH-ME” value ([4]; 90 min, donor A) was 7.23 ± 0.88 nmol/10^6 cells and the “Thiol Levels Found, GSH” value (Human Erythrocytes [5]) was 2.35 ± 0.52 mM. For the same molecule, the “Thiol Levels Found, GSH-ME” value (Human Erythrocytes [5]) was 3.45 ± 0.73 mM, the “Thiol Levels Found, Total” value (Human Erythrocytes [5]) was 5.80 ± 1.25 mM and the “Blood plasma levels of GSH” value ([1]; hamsters, 5 mmol/kg after BSO) was “not affected”. For the same molecule, the “Thiol Levels Found, GSH” value [6] was 1.46 nmol/10^6 cells, the “Thiol Levels Found, GSH-ME” value [6] was 2.08 nmol/10^6 cells and the “Thiol Levels Found, Total” value [6] was 3.54 nmol/10^6 cells.
